Test results: patent US6291673A, “Folic acid derivatives” (Purdue Research Foundation, priority 2000, dated 2001)
Where “and” joins values, the source holds several entries; their conditions need not be identical. Equal values may be shown once.

Assays:
[1] = test system: carboxypeptidase G; experiment: Carboxypeptidase G enantiospecific hydrolysis of folic acid derivatives (HPLC of released pteroic acid); type: biochemical; conditions: Tris buffer with ZnCl2, 37° C., 2 h, pyrofolates and monoesters first hydrolysed in 0.25 M NaOH, error about ±2-3%
Protocol: Since it had been previously observed that guanidine bases are capable of racemizing acylated glutamates (under more forcing conditions than were employed in the reactions listed in Table 2), the optical purity of the folic acid 1 (=25a) and several of its derivatives which had been produced was evaluated. […] In order to assay the pyrofolates 8 and 9 as well as the α- and γ-monoesters of folic acid L-33a and L-33c, an initial mild basic hydrolysis was required prior to the enzyme assay. […] Control reactions on synthetic D-1=25a and DL-1=25a (Table 3, Entries 3,4) serve to confirm the error limits of the enzymatic method at about ±2-3%.
Determination of optical purity of folate derivatives listed in Table 3 using enzymatic hydrolysis with carboxypeptidase G:30:
The folic acid derivative (~2.5 mg) was dissolved in 1 mL Tris buffer containing 20 μg ZnCl2 and 50 microunit enzyme (Sigma Chemical Company) was added. The solution was incubated at 37° C. for 2 h. A 20 μL sample was tested by HPLC on a […] MICROSORB C-18 reverse phase column (Eluent A: 5 mM phosphate buffer; Eluent B: acetonitrile; flow rate: 1 mL/min; gradient: 0-5 min, 5% B, 10-15, 25% B). Folic acid was eluted at 4.1 min, pteroic acid at 10.6 min, methotrexate at 10.8 min, and amino-N10-methyl pteroic acid at 11.9 min. Peak area was used as the standard for analysis.
For folate derivatives, ~5 mg was first dissolved in 1 mL 0.25 M NaOH and incubated at room temperature for 1 h. Then the solution was acidified by 1 M HCl until precipitation. After centrifugation, washing, and drying, the ~2.5 mg yellow pellet was dissolved in 1 mL Tris buffer and reacted with enzyme under the conditions described above.

[2] = Storage stability of pteroylazide 27; type: physicochemical
Source text: The known impurities include ~4% pteroic acid 10, ~2% of the aniline (PteNH2) apparently resulting from Curtius rearrangement of 27, ~2% of pteroylamide (PteCO--NH2 11); and <1% of folic acid 1. […] Unlike some acyl azides, pteroylazide 27 is quite stable; samples of the lemon-yellow solid may be stored in the dark in a freezer for at least 12 months without appreciable decomposition.

[3] = test system: carboxypeptidase G; conditions: footnote c of Table 3; cited from earlier work
[4] = target: T1, cell surface folate receptors (Homo sapiens, UniProt P15328); experiment: Affinities of FITC-EDA-folate for cell surface folate receptors on KB cells; type: binding
T1 construct: KB cells overexpressing the receptor; endogenous in cells; host or cells: KB cells
Protocol: To determine the affinities of EDA-folate for cell surface folate receptors, the α- and γ-isomers were labeled with the fluorophore FITC and incubated with KB cells overexpressing the receptor. […] The low level of non-specific uptake observed with both isomers was probably due to the hydrophobicity of the FITC conjugates.

T1 sequence (P15328 25-257): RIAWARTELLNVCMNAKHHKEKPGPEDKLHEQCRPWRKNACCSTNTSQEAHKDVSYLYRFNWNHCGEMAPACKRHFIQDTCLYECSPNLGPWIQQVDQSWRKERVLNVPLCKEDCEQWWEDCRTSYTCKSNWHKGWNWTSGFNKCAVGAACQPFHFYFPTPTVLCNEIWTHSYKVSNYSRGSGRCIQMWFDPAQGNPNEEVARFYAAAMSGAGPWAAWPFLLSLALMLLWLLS

SMILES	% Hydrolysis [1]	also measured
COC(=O)CCC(NC(=O)c1ccc(NCc2cnc3nc(N)[nH]c(=O)c3n2)cc1)C(=O)O (racemic) [DL-33a, (DL)-methyl folate (γ)]	54.4%	–
Nc1nc2ncc(CN(C(=O)C(F)(F)F)c3ccc(C(=O)N4C(=O)CCC4C(=O)O)cc3)nc2c(=O)[nH]1 (centres unmarked) [Compound 8, N10-Trifluoroacetylpyrofolic acid]	49.5%	–
Nc1nc2ncc(CNc3ccc(C(=O)N4C(=O)CCC4C(=O)O)cc3)nc2c(=O)[nH]1 (centres unmarked) [Compound 9, Pyrofolic acid]	51.7%	–
[N-]=[N+]=NC(=O)c1ccc(NCc2cnc3nc(N)[nH]c(=O)c3n2)cc1 [Compound 27, Pteroylazide]	–	shelf life ([2]; room temperature, protected from light): at least a month; HPLC profile after exposure to light ([2]; samples exposed to light (darken appreciably)): not substantially degraded; storage time without appreciable decomposition ([2]; solid, in the dark in a freezer): at least 12 months
CN(Cc1cnc2nc(N)nc(N)c2n1)c1ccc(C(=O)N[C@H](CCC(=O)O)C(=O)O)cc1 [Compound D-34d]	–	hydrolysis by carboxypeptidase G [3]: not to be hydrolyzed
COC(=O)CC[C@H](NC(=O)c1ccc(NCc2cnc3nc(N)[nH]c(=O)c3n2)cc1)C(=O)O [Compound L-33a, Tetramethylguanidinium (L)-methyl folate (γ)]	96.8%	–
CN(Cc1cnc2nc(N)nc(N)c2n1)c1ccc(C(=O)N[C@@H](CCC(=O)O)C(=O)O)cc1 [Compound L-34d, L-methotrexate, reference compound]	96.1% and 99.2%	–
Nc1nc(O)c2nc(CNc3ccc(C(=O)N[C@@H](CCC(=O)NCCNC(=S)Nc4ccc5c(c4)C(=O)OC54c5ccc(O)cc5Oc5cc(O)ccc54)C(=O)O)cc3)cnc2n1 [FITC-EDA-folate(γ)]	–	Kd ([4]; KB cells overexpressing the receptor, read-out: concentration required to reach 50% maximal binding): 1.6 nM
Nc1nc2ncc(CNc3ccc(C(=O)N[C@@H](CCC(=O)O)C(=O)NCCNC(=S)Nc4ccc5c(c4)C(=O)OC54c5ccc(O)cc5Oc5cc(O)ccc54)cc3)nc2c(=O)[nH]1 [α-isomer of FITC-EDA-folate]	–	affinity for the cell surface receptors ([4]; KB cells overexpressing the receptor): virtually no affinity

Now from value to compound, other results behind:

% Hydrolysis [1]	SMILES	also measured
52.3%	Nc1nc2ncc(CNc3ccc(C(=O)NC(CCC(=O)O)C(=O)O)cc3)nc2c(=O)[nH]1 (racemic) [D, L-25a]	–
3.0%	Nc1nc2ncc(CNc3ccc(C(=O)N[C@H](CCC(=O)O)C(=O)O)cc3)nc2c(=O)[nH]1 [Compound D-25a]	–
96.7%	Nc1nc2ncc(CNc3ccc(C(=O)N[C@@H](CCC(=O)O)C(=O)O)cc3)nc2c(=O)[nH]1 [Compound L-1, Folic acid]	competition with the receptor binding of FITC-EDA-folate(γ) ([4]; excess folic acid in the incubation medium, KB cells): effectively competed; % Hydrolysis ([1]; listed as L-25a): 98.4% and 98.6%
85.9% and 96.7%	CC(C)=CCOC(=O)[C@H](CCC(=O)O)NC(=O)c1ccc(NCc2cnc3nc(N)[nH]c(=O)c3n2)cc1 [Compound L-33c]	–
